What is called IC50 is the concentration at which inhibition is half-maximal.

These results are taken from patent publication US10981911B2, “Imidazopyrrolopyridine as inhibitors of the JAK family of kinases” (Janssen Pharmaceutica NV, priority 2016, dated 2021).

Common to all, as to type: biochemical
One assay deals with JAK1-JH1JH2 (Homo sapiens (Human), UniProt P23458). The assay can be described thus: Enzymatic inhibition assay (RapidFire HTMS), JAK1. The note with it: 12.5 μM ATP, 200 μM substrate; read-out: JAK1-JH2JH1 IC50. The method, boiled down: (§1)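 Quenched with 0.5% TFA plus internal-standard peptide; phosphorylated product quantified by RapidFire C4 SPE–ESI-MS, 11-point 1:3 or 1:4 dilutions in duplicate.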

The next assay concerns the target JAK2-JH1JH2 (Homo sapiens (Human), UniProt O60674). The assay can be described thus: Enzymatic inhibition assay (RapidFire HTMS), JAK2. The note with it: 30 μM ATP, 40 μM substrate. The method, boiled down:
as §1

Another assay has as its target JAK3-JH1JH2 (Homo sapiens (Human), UniProt P52333). The assay can be described thus: Enzymatic inhibition assay (RapidFire HTMS), JAK3. The note with it: 150 μM ATP, 40 μM substrate. The method, boiled down:
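Compounds tested in duplicate over 11-point 1:3 or 1:4 dilution series; no-enzyme wells as negative control. After 45 min at 25 °C, TFA quench with internal standard, and phosphorylated product quantified by RapidFire–QTrap mass spectrometry relative to the uninhibited reaction.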

A further assay deals with Tyk2-JH1JH2 (Homo sapiens (Human), UniProt P29597, C1142A/C936A). Briefly: Enzymatic inhibition assay (RapidFire HTMS), Tyk2. The note with it: 50 μM ATP, 200 μM substrate. The method, boiled down:
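Compounds were tested in duplicate as 11-point 1:3 or 1:4 DMSO dilutions (≤0.25% DMSO final) in 20 μL reactions at 25 °C for 90 min, with Tyk2 pre-incubated 30 min with 2 mM ATP. Reactions were quenched with TFA plus internal standard peptide, and phosphorylated product was quantified by RapidFire C4 SPE–ESI MS.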

JAK3-JH1JH2, sequence (P52333 512-1124): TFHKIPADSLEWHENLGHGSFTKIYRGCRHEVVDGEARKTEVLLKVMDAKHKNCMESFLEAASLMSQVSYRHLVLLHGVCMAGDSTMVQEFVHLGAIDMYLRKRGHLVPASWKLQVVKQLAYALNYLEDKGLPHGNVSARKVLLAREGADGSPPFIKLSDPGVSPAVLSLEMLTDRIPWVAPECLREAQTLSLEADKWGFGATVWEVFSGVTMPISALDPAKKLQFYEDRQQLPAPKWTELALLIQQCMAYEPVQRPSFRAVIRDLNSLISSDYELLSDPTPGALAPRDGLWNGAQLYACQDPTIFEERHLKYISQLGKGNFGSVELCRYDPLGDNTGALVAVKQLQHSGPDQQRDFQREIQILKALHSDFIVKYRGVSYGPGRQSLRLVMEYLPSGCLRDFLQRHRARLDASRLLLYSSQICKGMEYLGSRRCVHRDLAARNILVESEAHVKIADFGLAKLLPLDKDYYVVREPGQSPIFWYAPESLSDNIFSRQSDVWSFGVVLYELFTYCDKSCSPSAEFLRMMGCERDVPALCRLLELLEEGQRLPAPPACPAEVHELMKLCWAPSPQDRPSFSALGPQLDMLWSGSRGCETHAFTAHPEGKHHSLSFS
JAK2-JH1JH2, sequence (O60674 532-1132): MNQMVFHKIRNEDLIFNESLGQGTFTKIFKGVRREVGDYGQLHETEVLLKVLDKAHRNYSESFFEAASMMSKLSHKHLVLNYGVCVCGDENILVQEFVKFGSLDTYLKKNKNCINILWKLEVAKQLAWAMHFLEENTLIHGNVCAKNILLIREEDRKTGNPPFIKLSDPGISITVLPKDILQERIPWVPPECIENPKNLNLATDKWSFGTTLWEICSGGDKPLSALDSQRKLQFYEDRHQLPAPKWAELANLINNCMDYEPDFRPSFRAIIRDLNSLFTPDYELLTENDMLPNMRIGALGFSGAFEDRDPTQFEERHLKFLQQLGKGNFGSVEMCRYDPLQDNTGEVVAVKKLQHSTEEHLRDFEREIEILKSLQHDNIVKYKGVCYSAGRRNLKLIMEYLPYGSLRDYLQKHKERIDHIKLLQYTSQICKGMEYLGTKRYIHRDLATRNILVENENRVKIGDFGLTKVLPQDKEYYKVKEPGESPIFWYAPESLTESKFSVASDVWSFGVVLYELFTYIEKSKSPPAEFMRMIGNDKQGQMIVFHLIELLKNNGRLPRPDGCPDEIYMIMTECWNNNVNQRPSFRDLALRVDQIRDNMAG
JAK1-JH1JH2, sequence (P23458 574-1154): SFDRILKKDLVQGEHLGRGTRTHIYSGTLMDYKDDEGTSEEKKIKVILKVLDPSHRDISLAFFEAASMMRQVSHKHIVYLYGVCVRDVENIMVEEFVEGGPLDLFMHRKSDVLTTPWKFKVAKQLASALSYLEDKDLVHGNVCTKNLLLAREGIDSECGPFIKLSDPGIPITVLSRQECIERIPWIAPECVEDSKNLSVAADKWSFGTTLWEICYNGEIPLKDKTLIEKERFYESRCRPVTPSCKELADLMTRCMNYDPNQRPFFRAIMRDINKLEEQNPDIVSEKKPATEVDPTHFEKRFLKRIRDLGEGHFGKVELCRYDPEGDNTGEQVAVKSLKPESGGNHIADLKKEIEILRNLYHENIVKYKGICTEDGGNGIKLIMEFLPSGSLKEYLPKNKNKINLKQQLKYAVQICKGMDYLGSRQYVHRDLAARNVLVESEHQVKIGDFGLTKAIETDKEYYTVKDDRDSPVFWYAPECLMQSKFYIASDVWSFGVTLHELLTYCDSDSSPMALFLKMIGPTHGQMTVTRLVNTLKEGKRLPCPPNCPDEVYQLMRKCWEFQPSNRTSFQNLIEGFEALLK
Tyk2-JH1JH2, sequence (P29597 580-1182 C936A/C1142A): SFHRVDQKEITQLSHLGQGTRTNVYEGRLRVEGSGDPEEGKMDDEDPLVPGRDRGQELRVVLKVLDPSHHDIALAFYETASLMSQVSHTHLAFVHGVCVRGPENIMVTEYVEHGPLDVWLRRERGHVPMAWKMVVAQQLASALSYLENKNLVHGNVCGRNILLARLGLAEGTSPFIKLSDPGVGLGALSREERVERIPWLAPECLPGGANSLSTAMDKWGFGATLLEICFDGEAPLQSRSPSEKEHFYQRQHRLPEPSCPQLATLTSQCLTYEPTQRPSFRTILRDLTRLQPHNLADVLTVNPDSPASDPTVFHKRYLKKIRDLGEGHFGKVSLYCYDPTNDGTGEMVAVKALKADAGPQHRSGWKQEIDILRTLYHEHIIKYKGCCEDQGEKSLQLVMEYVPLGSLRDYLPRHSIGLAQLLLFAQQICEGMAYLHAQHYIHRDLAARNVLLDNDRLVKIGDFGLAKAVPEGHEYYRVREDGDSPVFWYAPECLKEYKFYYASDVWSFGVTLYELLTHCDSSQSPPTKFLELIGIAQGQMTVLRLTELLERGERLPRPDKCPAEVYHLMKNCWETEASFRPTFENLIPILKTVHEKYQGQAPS

For `N#CCCC(=O)NCc1nc2cnc3[nH]ccc3c2n1[C@H]1CC[C@H](CC#N)CC1` [Ex. 157, 3-Cyano-N-((1-((1r,4r)-4-(cyanomethyl)cyclohexyl)-1,6-dihydroimidazo[4,5-d]pyrrolo[2,3-b]pyridin-2-yl)methyl)propanamide], the IC50 was determined as 1.4 nM on JAK1-JH1JH2, 74.9 nM against JAK2-JH1JH2, 1110 nM against JAK3-JH1JH2 and 39.5 nM at Tyk2-JH1JH2.
As to `CC(C)(C)OC(=O)NCc1nc2cnc3[nH]ccc3c2n1[C@H]1CC[C@H](CC#N)CC1` [Ex. 158, tert-Butyl ((1-((1r,4r)-4-(Cyanomethyl)cyclohexyl)-1,6-dihydroimidazo[4,5-d]pyrrolo[2,3-b]pyridin-2-yl)methyl)carbamate], the IC50 worked out at 1.4 nM at JAK1-JH1JH2, 77.9 nM at JAK2-JH1JH2, 630 nM on JAK3-JH1JH2 and 59.5 nM at Tyk2-JH1JH2.
On to `N#CC[C@H]1CC[C@H](n2c(C3CNC3)nc3cnc4[nH]ccc4c32)CC1` [Ex. 159, 2-((1r,4r)-4-(2-(Azetidin-3-yl)imidazo[4,5-d]pyrrolo[2,3-b]pyridin-1(6H)-yl)cyclohexyl)acetonitrile], for which the IC50 at JAK1-JH1JH2 was determined as 1.6 nM; on JAK2-JH1JH2 it was 57 nM; at JAK3-JH1JH2, 1230 nM; against Tyk2-JH1JH2, 19 nM.
For `N#CCC(=O)N1CC(c2nc3cnc4[nH]ccc4c3n2[C@H]2CC[C@H](CC#N)CC2)C1` [Ex. 160, 3-(3-(1-((1r,4r)-4-(Cyanomethyl)cyclohexyl)-1,6-dihydroimidazo[4,5-d]pyrrolo[2,3-b]pyridin-2-yl)azetidin-1-yl)-3-oxopropanenitrile], in that order: 1.5 nM, 87.1 nM, 1080 nM and 52.4 nM.
For the compound `COCCNC(=O)OCc1nc2cnc3[nH]ccc3c2n1[C@H]1CC[C@H](CC#N)CC1` [Ex. 161, (1-((1r,4r)-4-(Cyanomethyl)cyclohexyl)-1,6-dihydroimidazo[4,5-d]pyrrolo[2,3-b]pyridin-2-yl)methyl (2-methoxyethyl)carbamate], the IC50 is 1.6 nM at JAK1-JH1JH2, 20 nM against JAK2-JH1JH2, 260 nM against JAK3-JH1JH2 and 20 nM on Tyk2-JH1JH2.
`C[S@](=O)(=NCc1nc2cnc3[nH]ccc3c2n1[C@H]1CC[C@H](CC#N)CC1)c1ccccc1` [Ex. 162, 2-((1r,4r)-4-(2-((((R)-Methyl(oxo)(phenyl)-λ^6-sulfanylidene)amino)methyl)imidazo[4,5-d]pyrrolo[2,3-b]pyridin-1(6H)-yl)cyclohexyl)acetonitrile]: the IC50 at JAK1-JH1JH2 worked out at 1.6 nM; at JAK2-JH1JH2, 113 nM; at JAK3-JH1JH2 it was 2270 nM; on Tyk2-JH1JH2 it was 81.7 nM.
As to `C[S@@](=O)(=NCc1nc2cnc3[nH]ccc3c2n1[C@H]1CC[C@H](CC#N)CC1)c1ccccc1` [Ex. 163, 2-((1r,4r)-4-(2-((((S)-methyl(oxo)(phenyl)-λ^6-sulfanylidene)amino)methyl)imidazo[4,5-d]pyrrolo[2,3-b]pyridin-1(6H)-yl)cyclohexyl)acetonitrile], the IC50 at JAK1-JH1JH2 was found to be 3.2 nM; at JAK2-JH1JH2, 21.2 nM; against JAK3-JH1JH2, 864 nM; on Tyk2-JH1JH2 it was 60.8 nM.
Regarding `CC(=O)N1CCC(c2nc3cnc4[nH]ccc4c3n2[C@H]2CC[C@H](CC#N)CC2)CC1` [Ex. 164, 2-((1r,4r)-4-(2-(1-Acetylpiperidin-4-yl)imidazo[4,5-d]pyrrolo[2,3-b]pyridin-1(6H)-yl)cyclohexyl)acetonitrile], the IC50 stood at 1.6 nM on JAK1-JH1JH2, 125 nM against JAK2-JH1JH2, 2150 nM against JAK3-JH1JH2 and 174 nM at Tyk2-JH1JH2.
In the same order, the values of `N#CC[C@H]1CC[C@H](n2c(Cn3c(C4CC4)noc3=O)nc3cnc4[nH]ccc4c32)CC1` [Ex. 165, 2-((1r,4r)-4-(2-((3-Cyclopropyl-5-oxo-1,2,4-oxadiazol-4(5H)-yl)methyl)imidazo[4,5-d]pyrrolo[2,3-b]pyridin-1(6H)-yl)cyclohexyl)acetonitrile] are 1.7 nM, 122 nM, 2700 nM and 30.5 nM.
For `N#CC[C@H]1CC[C@H](n2c(-c3cnn(Cc4cocn4)c3)nc3cnc4[nH]ccc4c32)CC1` [Ex. 166, 2-((1r,4r)-4-(2-(1-(Oxazol-4-ylmethyl)-1H-pyrazol-4-yl)imidazo[4,5-d]pyrrolo[2,3-b]pyridin-1(6H)-yl)cyclohexyl)acetonitrile], in that order: 1.8 nM, 17 nM, 144 nM and 37.3 nM.
For `CC(C)(O)CN1CCC(c2nc3cnc4[nH]ccc4c3n2[C@H]2CC[C@H](CC#N)CC2)CC1` [Ex. 168, 2-((1r,4r)-4-(2-(1-(2-Hydroxy-2-methylpropyl)piperidin-4-yl)imidazo[4,5-d]pyrrolo[2,3-b]pyridin-1(6H)-yl)cyclohexyl)acetonitrile], in that order: 2 nM, 34.2 nM, 1570 nM and 30.7 nM.
`C#Cc1ccc(C(=O)c2ccc(-c3nc4cnc5[nH]ccc5c4n3[C@H]3CC[C@H](CC#N)CC3)cc2)cc1` [Ex. 169, 2-((1r,4r)-4-(2-(4-(4-Ethynylbenzoyl)phenyl)imidazo[4,5-d]pyrrolo[2,3-b]pyridin-1(6H)-yl)cyclohexyl)acetonitrile]: the IC50 stood at 2 nM at JAK1-JH1JH2, 30.7 nM on JAK2-JH1JH2, 5640 nM against JAK3-JH1JH2 and 104 nM on Tyk2-JH1JH2.
As for `C#Cc1ccc(C(=O)c2ccc(CCc3nc4cnc5[nH]ccc5c4n3[C@H]3CC[C@H](CC#N)CC3)cc2)cc1` [Ex. 170, 2-((1r,4r)-4-(2-(4-(4-Ethynylbenzoyl)phenethyl)imidazo[4,5-d]pyrrolo[2,3-b]pyridin-1(6H)-yl)cyclohexyl)acetonitrile], the IC50 was 1.5 nM at JAK1-JH1JH2, 80.9 nM on JAK2-JH1JH2, greater than 12500 nM on JAK3-JH1JH2 and 26.4 nM at Tyk2-JH1JH2.
Regarding `CC(C)NC(=O)NCc1nc2cnc3[nH]ccc3c2n1[C@H]1CC[C@H](CC#N)CC1` [Ex. 171, 1-((1-((1r,4r)-4-(Cyanomethyl)cyclohexyl)-1,6-dihydroimidazo[4,5-d]pyrrolo[2,3-b]pyridin-2-yl)methyl)-3-isopropylurea], the IC50 stood at 2 nM on JAK1-JH1JH2, 33.9 nM at JAK2-JH1JH2, 211 nM on JAK3-JH1JH2 and 18.8 nM against Tyk2-JH1JH2.
For `CC(C)NC(=O)c1nc2cnc3[nH]ccc3c2n1[C@H]1CC[C@H](CC#N)CC1` [Ex. 172, 1-((1r,4r)-4-(Cyanomethyl)cyclohexyl)-N-isopropyl-1,6-dihydroimidazo[4,5-d]pyrrolo[2,3-b]pyridine-2-carboxamide], in that order: 2.1 nM, 75.2 nM, 3060 nM and 53.5 nM.
Regarding `COCCCNC(=O)c1nc2cnc3[nH]ccc3c2n1[C@H]1CC[C@H](CC#N)CC1` [Ex. 173, 1-((1r,4r)-4-(Cyanomethyl)cyclohexyl)-N-(3-methoxypropyl)-1,6-dihydroimidazo[4,5-d]pyrrolo[2,3-b]pyridine-2-carboxamide], the IC50 at JAK1-JH1JH2 was determined as 1.3 nM; on JAK2-JH1JH2, 28 nM; against JAK3-JH1JH2, 732 nM; against Tyk2-JH1JH2 it was 55.9 nM.
Consider `N#CC[C@H]1CC[C@H](n2c(C(=O)NCC3CC3)nc3cnc4[nH]ccc4c32)CC1` [Ex. 174, 1-((1r,4r)-4-(cyanomethyl)cyclohexyl)-N-(cyclopropylmethyl)-1,6-dihydroimidazo[4,5-d]pyrrolo[2,3-b]pyridine-2-carboxamide], for which the IC50 on JAK1-JH1JH2 was 2.2 nM; at JAK2-JH1JH2, 57.2 nM; against JAK3-JH1JH2, 604 nM; at Tyk2-JH1JH2 it was 55.2 nM.
In the case of `N#CC[C@H]1CC[C@H](n2c(C(=O)NC3CC3)nc3cnc4[nH]ccc4c32)CC1` [Ex. 175, 1-((1r,4r)-4-(Cyanomethyl)cyclohexyl)-N-cyclopropyl-1,6-dihydroimidazo[4,5-d]pyrrolo[2,3-b]pyridine-2-carboxamide], the IC50 at JAK1-JH1JH2 amounted to 2.5 nM; at JAK2-JH1JH2, 27.8 nM; against JAK3-JH1JH2, 839 nM; at Tyk2-JH1JH2 it was 49.5 nM.
Take `COC1CCN(C(=O)c2nc3cnc4[nH]ccc4c3n2[C@H]2CC[C@H](CC#N)CC2)CC1` [Ex. 176, 2-((1r,4r)-4-(2-(4-Methoxypiperidine-1-carbonyl)imidazo[4,5-d]pyrrolo[2,3-b]pyridin-1(6H)-yl)cyclohexyl)acetonitrile]: the IC50 on JAK1-JH1JH2 came out at 2.6 nM; on JAK2-JH1JH2 it was 157 nM; against JAK3-JH1JH2, 3250 nM; on Tyk2-JH1JH2, 127 nM.
In the case of `N#CC[C@H]1CC[C@H](n2c(C(=O)N3CCC(C#N)CC3)nc3cnc4[nH]ccc4c32)CC1` [Ex. 177, 1-(1-((1r,4r)-4-(Cyanomethyl)cyclohexyl)-1,6-dihydroimidazo[4,5-d]pyrrolo[2,3-b]pyridine-2-carbonyl)piperidine-4-carbonitrile], the IC50 on JAK1-JH1JH2 is 2.7 nM; at JAK2-JH1JH2, 161 nM; against JAK3-JH1JH2 it was 2370 nM; at Tyk2-JH1JH2, 102 nM.
Consider `N#CC[C@H]1CC[C@H](n2c(C(=O)NC3CCOCC3)nc3cnc4[nH]ccc4c32)CC1` [Ex. 178, 1-((1r,4r)-4-(Cyanomethyl)cyclohexyl)-N-(tetrahydro-2H-pyran-4-yl)-1,6-dihydroimidazo[4,5-d]pyrrolo[2,3-b]pyridine-2-carboxamide], for which the IC50 is 3.1 nM at JAK1-JH1JH2, 60 nM on JAK2-JH1JH2, 1310 nM against JAK3-JH1JH2 and 42.2 nM on Tyk2-JH1JH2.
